Measurements as given in ChEMBL document CHEMBL1157501, “Novel fluorinated acridone derivatives. Part 1: synthesis and evaluation as potential anticancer agents” (Bioorg Med Chem Lett, 2008).

How the values were obtained:
T47D = assay: Growth inhibition of human T47D cells at 10 uM relative to control; type: functional
SNB-75 = assay: Growth inhibition of human SNB75 cells at 10 uM relative to control; type: functional
A549 = assay: Growth inhibition of human A549 cells at 10 uM relative to control; type: functional
CCRF-CEM = assay: Growth inhibition of human CCRF-CEM cells at 10 uM relative to control; type: functional
HCT-116 = assay: Growth inhibition of human HCT116 cells at 10 uM relative to control; type: functional
BT-20 = assay: Antiproliferative activity against human BT20 cells after 72 hrs by Alamar Blue assay; type: functional, cell-based; details: BT-20, 72 h
HT-29 = assay: Growth inhibition of human HT29 cells at 10 uM relative to control; type: functional
SW480 = assay: Antiproliferative activity against human SW480 cells after 72 hrs by Alamar Blue assay; type: functional, cell-based; details: SW480, 72 h
UACC-257 = assay: Growth inhibition of human UACC257 cells at 10 uM relative to control; type: functional
CAKI-1 = assay: Growth inhibition of human CAKI1 cells at 10 uM relative to control; type: functional
SK-MEL-28 = assay: Growth inhibition of human SK-MEL-28 cells at 10 uM relative to control; type: functional
SF-295 = assay: Growth inhibition of human SF295 cells at 10 uM relative to control; type: functional
MCF7 = assay: Growth inhibition of human MCF7 cells at 10 uM relative to control; type: functional
BT-549 = assay: Antiproliferative activity against human BT549 cells after 72 hrs by alamar blue assay; type: functional, cell-based; details: BT-549, 72 h
786-0 = assay: Growth inhibition of human 786-0 cells at 10 uM relative to control; type: functional
HOP-92 = assay: Growth inhibition of human HOP92 cells at 10 uM relative to control; type: functional
Jurkat = assay: Antiproliferative activity against human Jurkat cells after 72 hrs by Alamar Blue assay; type: functional, cell-based
[1] = Growth inhibition of human HL60(TB) cells at 10 uM relative to control; type: functional, HL-60(TB); details: HL-60
MOLT-4 = assay: Growth inhibition of human MOLT4 cells at 10 uM relative to control; type: functional

SMILES | inhibition at 10 µM (T47D) [%] | inhibition at 10 µM (SNB-75) [%] | inhibition at 10 µM (A549) [%] | inhibition at 10 µM (CCRF-CEM) [%] | inhibition at 10 µM (HCT-116) [%] | IC50 (BT-20) [µM] | inhibition at 10 µM (HT-29) [%] | IC50 (SW480) [µM] | inhibition at 10 µM (UACC-257) [%] | inhibition at 10 µM (CAKI-1) [%] | inhibition at 10 µM (SK-MEL-28) [%] | inhibition at 10 µM (SF-295) [%] | inhibition at 10 µM (MCF7) [%] | IC50 (BT-549) [µM] | inhibition at 10 µM (786-0) [%] | inhibition at 10 µM (HOP-92) [%] | IC50 (Jurkat) [µM] | inhibition at 10 µM [1] [%] | inhibition at 10 µM (MOLT-4) [%]
O=C1CC(C(F)(F)F)Cc2nc3ccc(Cl)cc3c(-c3ccccc3)c21 (stereo unspecified) | < 20 | < 20 | 80 | < 20 | 25 | 22.1 | < 20 | 28.4 | 40 | 66 | < 20 | 48 | < 20 | 16.1 | < 20 | 37 | 12.3 |  | 
O=C1CC(C(F)(F)F)Cc2nc3ccc(Cl)cc3c(-c3ccccc3Cl)c21 (stereo unspecified) | < 20 | < 20 | 50 | 60 | 38 | 42.1 | < 20 | 21.3 | < 20 | < 20 | < 20 | < 20 | < 20 | 39.3 | < 20 | 38 | 87.6 | < 20 | 46
